Literature values as cited in patent US20050238616A1, “Compositions for treatment of central nervous system neoplasms, and methods of making and using the same” (Guilford Pharmaceuticals, Inc., priority 2002, published 2005).

Test system: human glioma cell lines
Conditions: several human glioma cell lines in vitro

CC(=O)O[C@H]1C(=O)[C@@]2(C)[C@H]([C@H](OC(=O)c3ccccc3)[C@]3(O)C[C@H](OC(=O)[C@H](O)[C@@H](NC(=O)c4ccccc4)c4ccccc4)C(C)=C1C3(C)C)[C@]1(OC(C)=O)CO[C@@H]1C[C@@H]2O [paclitaxel]
LD90: 5 to 10 nM
